Assay results: US4230719A, “Novel 2-[4-(3-methyl-2-thienyl)phenyl]propionic acid and pharmaceutically acceptable salt thereof and method for treating symptoms of inflammation and pain” (Toyama Chemical Co., Ltd., priority 1977, dated 1980)
Like-named read-outs stand apart in the source and are kept apart here.

What was measured:
[1] = tested on: threshold value of pain due to pressure stimuli (tail); settings: for Analgesic effect: 100% = threshold raised by 160 g; for ED50: Mus musculus, po
[2] = tested on: Carrageenin-induced edema; test: Carrageenin-induced edema; format: in vivo, rat (Donryu strain, male); settings: Rattus norvegicus, po, read-out: Inhibitory percent of swelling; for inhibition in vivo at 15 mg/kg: 15 mg/kg p.o.
Experimental: (iii) Carrageenin-induced edema
Each of the 6 Donryu strain male rats per group (each weighing about 140 g), which had been fasted overnight, was orally loaded with 4 ml of water and, after 30 minutes, the test compound was orally administered thereto. Thirty minutes thereafter, a 1%(Wt/V) solution of carrageenin in physiological saline was subcutaneously injected into the subplantar region of the left hind paw. At a time interval of one hour, starting from the end of the first hour till the end of the fifth hour after injection of carrageenin, the paw volume was measured by means of a manometer and pressure transducer. By comparison with the percent increase in swelling of the control group of rats to which a 0.5%(V/V) solution of Tween 80 had been administered, the mean inhibitory percent in 5 hours of swelling was calculated by the following equation: [formula]

Vascular permeability [3] = test: Vascular permeability in mice (Whittle's method); format: in vivo, mouse (ddY strain, male); settings: for Inhibition: dye leakage; for ED30: po
Experimental: (i) Vascular permeability in mice (Whittle's method)
The test compound was orally administered to each ddY strain male mouse (weighing each about 20 g). After 20 minutes, 0.1 ml/10 g of a 4%(Wt/V) solution of Pontamine Sky Blue in physiological saline was intravenously injected and 10 minutes thereafter 0.1 ml/10 g of a 0.7%(V/V) solution of acetic acid in physiological saline was injected intraperitoneally. After 30 minutes, the mice were killed by suffocation with chloroform. After immediate laparotomy, the dye leaked into the peritoneal cavity was washed out with distilled water. The washings were made up with water to 30 ml and the absorbance at 620 mμ was measured. The amount of leaked dye per 20 g of mouse weight was compared.

in vivo = settings: rat, po
[4] = tested on: phenylbenzoquinone writhing; test: Analgesic activity, phenylbenzoquinone method in mouse; format: in vivo, mouse (ddY strain, male); settings: for Frequency of writhing, mean ± S.E.: during 10 minutes
Experimental: (i) Phenylbenzoquinone method in mouse
The test compound was orally administered to each ddY strain male mouse (weighing 22±2 g; 8 mice per group). […] The frequency of writhing during 10 minutes from 5-minutes after the injection of phenylbenzoquinone was measured and compared with that of a control group to which a 0.5% Tween 80 solution was administered. The percent inhibition was calculated by the following equation: [formula]

[5] = tested on: fever (Mycobacterium butyricum); test: Antipyretic action; format: in vivo, rat (Wistar strain, female)
Experimental: A suspension (0.6 mg/0.1 ml) of killed and dried Mycobacterium butyricum in liquid paraffin was subcutaneously injected in an amount of 0.1 ml into the subplantar region of the hind paw of each Wistar strain female rat weighing about 180 g. After 14 hours, the fevered rats were divided into groups, and each test compound was orally administered to each group to examine the antipyretic effect.

Vascular permeability [6] = test: Vascular permeability in rat (Whittle's method); format: in vivo, rat (Wistar strain, male)
Experimental: (ii) Vascular permeability in rat (Whittle's method)
The test compound was orally administered to each Wistar strain male rat (weighing about 150 g) which had been fasted overnight. After 55 minutes, 0.5 ml of a 0.5% Evans Blue solution was intravenously injected. Five minutes thereafter, 0.2 ml/100 g of a 3%(V/V) acetic acid solution was intraperitoneally injected. After 60 minutes from the injection of the acetic acid solution, the rats were killed by suffocation with chloroform. After immediate laparotomy, the dye leaked into the peritoneal cavity was washed out with physiological saline. The washings were made up with the saline to 30 ml and the absorbance at 640 mμ was measured to examine the effect of the test compounds by comparing the amounts of leaked dye per rat with one another.

[7] = tested on: Phenol Red (PSP) excretion; test: Uricosuric action (a), inhibition of Phenol Red (PSP) excretion; format: in vivo, rabbit (male); settings: dose not stated
Experimental: (a) The action was examined by the method of B. B. Brodie et al. who reported that the inhibitory action on Phenol Red (PSP) excretion correlates with the uricosuric action [Proc. Soc. Exp. Biol. Med., 86, 884 (1954)]. To a male rabbit weighing 2 to 3 kg was intraperitoneally administered the test compound. After 30 minutes, 75 mg/kg of a Phenol Red suspension was injected into the pinna vein of the rabbit and 30 minutes thereafter a blood sample was drawn from the pinna vein. The blood sample was centrifuged and the serum was diluted with physiological saline. The diluted serum was treated with 0.1 N NaOH to develop the color. The concentration of Phenol Red in the serum was determined from the absorbance at 560 mμ.

[8] = tested on: pain threshold (brewer's yeast, hind paw); test: Analgesic activity, Randall-Selitto method in rat; format: in vivo, rat (Wistar strain, male); settings: for Inhibition: 100% = pain threshold raised by 150 g
Experimental: (ii) Randall-Selitto method in rat
After one hour, the test compound was orally administered. One hour thereafter, the pain threshold value was measured four times at a time interval of one hour. The mean value of four values obtained was taken as the pain threshold value of each group of rats. The activity of the drug was assumed to be 100% when the pain threshold value was raised by 150 g.

[9] = Mus musculus, po, 10 min, writhing, 20 mg/kg p.o., read-out: Inhibition
[10] = Mus musculus, po, 10 min, writhing, 40 mg/kg p.o.
[11] = Mus musculus, po, 10 min, read-out: Inhibition

CC(=O)Oc1ccccc1C(=O)O [Aspirin]
Analgesic effect ([1]; 200 mg/kg p.o.): 25% | Analgesic effect ([1]; 800 mg/kg p.o.): 53% | ED50 [1]: 710 mg/kg

CCc1ccsc1-c1ccc(C(C)C(=O)O)cc1 (stereo not shown) [Compound C1]
inhibition in vivo at 5 mg/kg ([2]; 5 mg/kg p.o., mean in 5 hours): 9.3% | Dye leakage (P.S.B.) mean ± S.E. (Vascular permeability [3]; 10 mg/kg p.o.): 316.9 ± 29.0 μg/20g | Dye leakage (P.S.B.) mean ± S.E. (Vascular permeability [3]; 20 mg/kg p.o.): 245.9 ± 15.4 μg/20g | Inhibition (Vascular permeability [3]; 10 mg/kg p.o.): 18.0% | Inhibition (Vascular permeability [3]; 20 mg/kg p.o.): 36.4% | ED30 (Vascular permeability [3]; mouse, read-out: ED30): 16 mg/kg | LD50 (in vivo): > 400 mg/kg | Frequency of writhing, mean ± S.E. ([4]; 10 mg/kg p.o.): 23.6 ± 5.0 | Frequency of writhing, mean ± S.E. ([4]; 20 mg/kg p.o.): 23.7 ± 4.4 | Frequency of writhing, mean ± S.E. ([4]; 40 mg/kg p.o.): 23.1 ± 3.9 | inhibition in vivo at 10 mg/kg ([4]; Mus musculus, po, 10 min, writhing, 10 mg/kg p.o., read-out: Inhibition): 0% | inhibition in vivo at 20 mg/kg [4, 9]: -0.4% | inhibition in vivo at 40 mg/kg [4, 10]: 2.1% | ED50 ([4]; po, mouse, read-out: ED50): > 50 mg/kg

CCCc1ccsc1-c1ccc(C(C)C(=O)O)cc1 (stereo not shown) [Compound C4]
inhibition in vivo at 5 mg/kg ([2]; 5 mg/kg p.o., mean in 5 hours): -7.2% | inhibition in vivo at 15 mg/kg ([2]; mean in 5 hours): -2.7% | Frequency of writhing, mean ± S.E. ([4]; 40 mg/kg p.o.): 24.0 ± 2.6 | inhibition in vivo at 40 mg/kg [4, 10]: -1.7% | ED50 ([4]; po, mouse, read-out: ED50): > 50 mg/kg

Cc1csc(-c2ccc(C(C)C(=O)O)cc2)c1 (stereo not shown) [Compound C5]
inhibition in vivo at 3 mg/kg ([2]; 3 mg/kg p.o., mean in 5 hours): -25.7% | inhibition in vivo at 10 mg/kg ([2]; 10 mg/kg p.o., mean in 5 hours): 0.7% | Frequency of writhing, mean ± S.E. ([4]; 40 mg/kg p.o.): 23.4 ± 1.9 | inhibition in vivo at 40 mg/kg [4, 10]: 0.8% | ED50 ([4]; po, mouse, read-out: ED50): > 50 mg/kg

Cc1ccc(-c2ccc(C(C)C(=O)O)cc2)s1 (stereo not shown) [Compound C6]
inhibition in vivo at 5 mg/kg ([2]; 5 mg/kg p.o., mean in 5 hours): 19.1% | inhibition in vivo at 15 mg/kg ([2]; mean in 5 hours): 31.4% | Frequency of writhing, mean ± S.E. ([4]; 40 mg/kg p.o.): 18.2 ± 2.8 | inhibition in vivo at 40 mg/kg [4, 10]: 22.9% | ED50 ([4]; po, mouse, read-out: ED50): > 50 mg/kg

Cc1cc(-c2ccc(C(C)C(=O)O)cc2)sc1C (stereo not shown) [Compound C7]
inhibition in vivo at 5 mg/kg ([2]; 5 mg/kg p.o., mean in 5 hours): -21.6% | inhibition in vivo at 15 mg/kg ([2]; mean in 5 hours): 15.1% | Frequency of writhing, mean ± S.E. ([4]; 40 mg/kg p.o.): 19.1 ± 3.8 | inhibition in vivo at 40 mg/kg [4, 10]: 19.1% | ED50 ([4]; po, mouse, read-out: ED50): > 50 mg/kg

CC(C(=O)O)c1ccc(-c2ccc(Cl)s2)cc1 (stereo not shown) [Compound C8]
inhibition in vivo at 5 mg/kg ([2]; 5 mg/kg p.o., mean in 5 hours): 17% | inhibition in vivo at 15 mg/kg ([2]; mean in 5 hours): 41.9% | Frequency of writhing, mean ± S.E. ([4]; 20 mg/kg p.o.): 17.5 ± 4.2 | Frequency of writhing, mean ± S.E. ([4]; 40 mg/kg p.o.): 6.3 ± 0.6 | inhibition in vivo at 20 mg/kg [4, 9]: 25.8% | inhibition in vivo at 40 mg/kg [4, 10]: 73.3% | ED50 ([4]; po, mouse, read-out: ED50): 27 mg/kg

O=C(O)Cc1ccc(-c2cccs2)cc1 [Compound C9]
inhibition in vivo at 5 mg/kg ([2]; 5 mg/kg p.o., mean in 5 hours): 15.1% | inhibition in vivo at 15 mg/kg ([2]; mean in 5 hours): 24.1% | Frequency of writhing, mean ± S.E. ([4]; 40 mg/kg p.o.): 13.9 ± 1.6 | inhibition in vivo at 40 mg/kg [4, 10]: 41.1% | ED50 ([4]; po, mouse, read-out: ED50): > 40 mg/kg

CC(C)Cc1ccc(C(C)C(=O)O)cc1 (stereo not shown) [Ibuprofen]
Analgesic effect ([1]; 20 mg/kg p.o.): 36% | Analgesic effect ([1]; 80 mg/kg p.o.): 60% | ED50 [1]: 44.5 mg/kg

COc1ccc2c(c1)c(CC(=O)O)c(C)n2C(=O)c1ccc(Cl)cc1 [Indomethacin]
Mean decrease in temp. ([5]; 0.2 mg/kg p.o.): 0.25 °C | Mean decrease in temp. ([5]; 1 mg/kg p.o.): 0.87 °C | Mean decrease in temp. ([5]; 5 mg/kg p.o.): 1.35 °C | ED1.0 ([5]; Rattus norvegicus, po): 1.06 mg/kg | Analgesic effect ([1]; 5 mg/kg p.o.): 44% | Analgesic effect ([1]; 20 mg/kg p.o.): 80% | ED50 [1]: 6 mg/kg | inhibition in vivo at 1 mg/kg ([2]; 5 h): 6.4% | inhibition in vivo at 5 mg/kg ([2]; 5 h): 46.2% | Dye leakage (P.S.B.) mean ± S.E. (Vascular permeability [3]; 5 mg/kg p.o.): 240.5 ± 25.9 μg/20g | Dye leakage (P.S.B.) mean ± S.E. (Vascular permeability [3]; 10 mg/kg p.o.): 204.5 ± 17.6 μg/20g | Dye leakage (P.S.B.) mean ± S.E. (Vascular permeability [3]; 20 mg/kg p.o.): 176.4 ± 17.0 μg/20g | ED30 (Vascular permeability [3]; Mus musculus): 6.8 mg/kg | Inhibition (Vascular permeability [3]; 5 mg/kg p.o.): 25.0% | Inhibition (Vascular permeability [3]; 10 mg/kg p.o.): 36.3% | Inhibition (Vascular permeability [3]; 20 mg/kg p.o.): 45.0% | LD50 (in vivo): 16.2 mg/kg | Frequency of writhing, mean ± S.E. ([4]; 5 mg/kg p.o.): 13.8 ± 2.9 | Frequency of writhing, mean ± S.E. ([4]; 10 mg/kg p.o.): 9.1 ± 3.1 | Frequency of writhing, mean ± S.E. ([4]; 20 mg/kg p.o.): 5.4 ± 2.1 | ED50 ([4]; Mus musculus, po): 7 mg/kg | inhibition in vivo at 5 mg/kg [4, 11]: 41.5% | inhibition in vivo at 10 mg/kg [4, 11]: 61.4% | inhibition in vivo at 20 mg/kg [4, 11]: 77.1% | Inhibition (Vascular permeability [6]; 0.5 mg/kg p.o.): 20.7% | Inhibition (Vascular permeability [6]; 1 mg/kg p.o.): 32.5% | Inhibition (Vascular permeability [6]; 5 mg/kg p.o.): 47.7% | ED30 (Vascular permeability [6]; Rattus norvegicus, po): 1 mg/kg | Uricosuric action (in words) [7]: very weak | Inhibition ([8]; 1 mg/kg p.o.): 27.4% | Inhibition ([8]; 5 mg/kg p.o.): 41.6% | Inhibition ([8]; 25 mg/kg p.o.): 75.6% | ED50 ([8]; Rattus norvegicus, po): 6.3 mg/kg

CC(C(=O)O)c1cccc(C(=O)c2ccccc2)c1 (stereo not shown) [Ketoprofen]
Analgesic effect ([1]; 10 mg/kg p.o.): 40% | Analgesic effect ([1]; 40 mg/kg p.o.): 61% | ED50 [1]: 19.5 mg/kg
